How the values were obtained:
[1] = molecular target: T1, Retinol-binding protein 4 (Homo sapiens, UniProt P02753); test: Displacement of [3H]-retinol from RBP4 (unknown origin) by scintillation proximity assay
[2] = molecular target: T1, Retinol-binding protein 4; test: Inhibition of retinol-induced interaction of bacterially expressed MBP-tagged RBP4 (unknown origin) with Eu3+ cryptate labeled TTR by HTRF assay
[3] = Metabolic stability in human liver microsomes assessed as compound remaining at 10 uM after 30 mins; assay type: ADME; conditions: read-out: Stability
[4] = Metabolic stability in rat liver microsomes assessed as compound remaining at 10 uM after 30 mins; assay type: ADME; conditions: read-out: Stability

Row | IC50 [1] | IC50 [2] | remaining at 0.5 h, 10 µM [3] | remaining at 0.5 h, 10 µM [4] | Structure (SMILES)
1 | 6.3 nM | 100 nM | 0.2% | 9.8% | COC(=O)c1cc(C)nc(N2C[C@H]3C[C@@H](c4ccccc4C(F)(F)F)C[C@H]3C2)n1
2 | 9.7 nM | 1400 nM | 0% | 0% | COC(=O)c1cc(C)nc(N2CCN(c3ccccc3C(F)(F)F)CC2)n1
3 | 12.8 nM | 81.2 nM |  |  | COc1cc(C(=O)O)nc(N2C[C@H]3C[C@@H](c4ccccc4C(F)(F)F)C[C@H]3C2)n1

Row | Structure (SMILES) | IC50 [1] | IC50 [2] | remaining at 0.5 h, 10 µM [3] | remaining at 0.5 h, 10 µM [4]
4 | Cc1cc(-c2nnn[nH]2)nc(N2C[C@H]3C[C@@H](c4ccccc4C(F)(F)F)C[C@H]3C2)n1 |  | 175 nM |  | 

— ChEMBL document CHEMBL3593175, “Bicyclic [3.3.0]-Octahydrocyclopenta[c]pyrrolo Antagonists of Retinol Binding Protein 4: Potential Treatment of Atrophic Age-Related Macular Degeneration and Stargardt Disease” (J Med Chem, 2015)
